From US8501786B2, “Hydroxymethyl pyrrolidines as beta 3 adrenergic receptor agonists” (Merck Sharp & Dohme Corp., priority 2009, dated 2013)
Where a name gives a salt, the structure may show the parent alone.

Biological target: T1, human β3 adrenergic receptor (Homo sapiens, UniProt P13945)
T1 construct: stably transfected with the cloned β-adrenergic receptor (β1, β2 or β3); expressed in transfected cells; host or cells: Chinese hamster ovary (CHO) cells, stably transfected
Test: Functional assay: cAMP production (LANCE TR-FRET) in CHO cells stably transfected with cloned β3 adrenergic receptor
Type: cell-based
Settings: Table 2; cAMP production, CHO cells expressing human β3 AR; read-out: Human β3 functional
Description: Functional Assay: cAMP production in response to ligand is measured according to Barton, et al. (1991, Agonist-induced desensitization of D2 dopamine receptors in human Y-79 retinoblastoma cells. Mol. Pharmacal. v3229:650-658) modified as follows, cAMP production is measured using a homogenous time-resolved fluorescence resonance energy transfer immunoassay (LANCE™, Perkin Elmer) according to the manufacture's instructions. Chinese hamster ovary (CHO) cells, stably transfected with the cloned β-adrenergic receptor (β1, β2 or β3) are harvested after 3 days of subculturing. Harvesting of cells is done with Enzyme-free Dissociation Media (Specialty Media). Cells are then counted and resuspended in assay buffer (Hank's Balanced salt solution supplemented with 5 mM HEPES, […]) containing a phosphodiesterase inhibitor (IBMX, 0.6 mM). The reaction is initiated by mixing 6,000 cells in 6 μL with 6 μL Alexa Fluor labeled cAMP antibody (LANCE™ kit) which is then added to an assay well containing 12 μL of compound (diluted in assay buffer to 2× final concentration). The reaction proceeds for 30 min at room temperature and is terminated by the addition of 24 ul detection buffer (LANCE™ kit). The assay plate is then incubated for 1 h at room temperature and time-resolved fluorescence measured on a Perkin Elmer Envision reader or equivalent. The unknown cAMP level is determined by comparing fluorescence levels to a cAMP standard curve.
The non-selective, full agonist β-adrenergic ligand isoproterenol is used at all three receptors to determine maximal stimulation. The human β3 adrenergic receptor (AR) selective ligand (S)-N-[4-[2-[[2-hydroxy-3-(4-hydroxyphenoxy)propyl]amino]ethyl]-phenyl]-4-iodobenzenesulfonamide is used as a control in all assays. Isoproterenol is titrated at a final concentration in the assay of 10^-10 M to 10-5 and the selective ligand (S)-N-[4-[2-[[2-hydroxy-3-(4-hydroxyphenoxy)propyl]amino]ethyl]phenyl]-4-iodobenzenesulfonamide is titrated at the β3 receptor at concentration of 10^-10 M to 10^-5 M. Unknown ligands are titrated at all 3 β-adrenergic receptor subtypes at a final concentration in the assay of 10^-10 M to 10^-5 M to determine the EC50. The EC50 is defined as the concentration of compound that gives 50% activation of its own maximum. Data are analyzed using Microsoft Excel and Graphpad Prism or an internally developed data analysis software package.

T1 sequence (P13945 whole entry): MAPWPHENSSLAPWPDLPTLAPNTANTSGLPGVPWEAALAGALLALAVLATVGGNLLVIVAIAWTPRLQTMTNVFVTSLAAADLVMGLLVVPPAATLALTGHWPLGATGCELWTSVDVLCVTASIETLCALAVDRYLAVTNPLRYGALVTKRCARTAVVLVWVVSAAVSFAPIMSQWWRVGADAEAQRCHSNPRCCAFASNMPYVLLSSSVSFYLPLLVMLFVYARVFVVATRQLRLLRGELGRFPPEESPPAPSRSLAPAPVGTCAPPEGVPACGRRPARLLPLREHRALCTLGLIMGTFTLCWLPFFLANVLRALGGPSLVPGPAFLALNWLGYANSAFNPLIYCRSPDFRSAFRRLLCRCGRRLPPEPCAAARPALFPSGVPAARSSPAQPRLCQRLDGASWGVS

Row | EC50 [nM] | SMILES
1 | 1 to 10 | Cc1nn(CC(=O)Nc2ccc(CC3CC[C@H]([C@H](O)c4cccnc4)N3)cc2)c(=O)c2ccccc12 (some centres unmarked) [Example 9]
2 | 11 to 100 | O=C(CN1CCOC1=O)Nc1ccc(CC2CC[C@H]([C@H](O)c3cccnc3)N2)cc1 (some centres unmarked) [Example 44]
3 | 11 to 100 | O=C(Nc1ccc(CC2CC[C@H]([C@H](O)c3cccnc3)N2)cc1)c1ccccc1CCc1ccccc1 (some centres unmarked) [Example 32]
4 | 101 to 1000 | O=C(O)CCC(=O)Nc1ccc(CC2CC[C@H]([C@H](O)c3cccnc3)N2)cc1 (some centres unmarked) [Example 84]
5 | 11 to 100 | Cc1cn(CC(=O)Nc2ccc(CC3CC[C@H]([C@H](O)c4cccnc4)N3)cc2)nn1 (some centres unmarked) [Example 46]
6 | 1 to 10 | Nc1ncn(CC(=O)Nc2ccc(CC3CC[C@H]([C@H](O)c4cccnc4)N3)cc2)n1 (some centres unmarked) [Example 20]
7 | 1 to 10 | O=C(Cn1cnccc1=O)Nc1ccc(CC2CC[C@H]([C@H](O)c3cccnc3)N2)cc1 (some centres unmarked) [Example 53]
8 | 11 to 100 | CC1=NN(CC(=O)Nc2ccc(CC3CC[C@H]([C@H](O)c4cccnc4)N3)cc2)C(=O)C1 (some centres unmarked) [Example 70]
9 | 11 to 100 | Nc1ncncc1CC(=O)Nc1ccc(CC2CC[C@H]([C@H](O)c3cccnc3)N2)cc1 (some centres unmarked) [Example 49]
10 | 11 to 100 | Cc1nc(CC(=O)Nc2ccc(CC3CC[C@H]([C@H](O)c4cccnc4)N3)cc2)c(C)s1 (some centres unmarked) [Example 10]
11 | 11 to 100 | O=C(Cn1ncc2ccccc21)Nc1ccc(CC2CC[C@H]([C@H](O)c3cccnc3)N2)cc1 (some centres unmarked) [Example 5]
12 | 11 to 100 | O=C(CN1C(=O)CCC1=O)Nc1ccc(CC2CC[C@H]([C@H](O)c3cccnc3)N2)cc1 (some centres unmarked) [Example 43]
13 | 1 to 10 | O=C(Cn1ccc(=O)[nH]c1=O)Nc1ccc(CC2CC[C@H]([C@H](O)c3cccnc3)N2)cc1 (some centres unmarked) [Example 61]
14 | 11 to 100 | O=C(Nc1ccc(CC2CC[C@H]([C@H](O)c3cccnc3)N2)cc1)c1ccccc1-c1nc2ccccc2s1 (some centres unmarked) [Example 34]
15 | 11 to 100 | CC1=NN(CC(=O)Nc2ccc(CC3CC[C@H]([C@H](O)c4cccnc4)N3)cc2)C(=O)C1C (some centres unmarked) [Example 69]

Same assay, conditions: Table 3; cAMP production, CHO cells expressing human β3 AR; read-out: Human β3 functional

Row | EC50 [nM] | SMILES
16 | 101 to 1000 | Cc1nc2c(s1)CCC2C(=O)Nc1ccc(CC2CC[C@H]([C@H](O)c3cccnc3)N2)cc1 (single isomer, unassigned) [Example 116]
17 | < 1 | O=C(Nc1ccc(CC2CC[C@H]([C@H](O)c3cccnc3)N2)cc1)C1CCc2scnc21 (single isomer, unassigned) [Example 190]
18 | 11 to 100 | COCc1nc2c(s1)CCC2C(=O)Nc1ccc(CC2CC[C@H]([C@H](O)c3cccnc3)N2)cc1 (single isomer, unassigned) [Example 125]
19 | 11 to 100 | O=C(Nc1ccc(CC2CC[C@H]([C@H](O)c3cccnc3)N2)cc1)C1CCc2sc(C3CC3)nc21 (single isomer, unassigned) [Example 121]
20 | 11 to 100 | O=C(Nc1ccc(CC2CC[C@H]([C@H](O)c3cccnc3)N2)cc1)C1CCc2sc(Br)nc21 (single isomer, unassigned) [Example 159]
21 | 11 to 100 | CC(C(=O)Nc1ccc(CC2CC[C@H]([C@H](O)c3cccnc3)N2)cc1)c1ccn(C)n1 (single isomer, unassigned) [Example 214]
22 | 11 to 100 | CC(C(=O)Nc1ccc(CC2CC[C@H]([C@H](O)c3cccnc3)N2)cc1)n1cc(C(N)=O)nn1 (single isomer, unassigned) [Example 200]
23 | 11 to 100 | Cc1nnc2c(C(C)C(=O)Nc3ccc(CC4CC[C@H]([C@H](O)c5cccnc5)N4)cc3)cccn12 (single isomer, unassigned) [Example 217]
24 | 11 to 100 | CC(F)(C(=O)Nc1ccc(CC2CC[C@H]([C@H](O)c3cccnc3)N2)cc1)c1ccccn1 (single isomer, unassigned) [Example 146]
25 | 101 to 1000 | O=C1CC[C@@H](C(=O)Nc2ccc(CC3CC[C@H]([C@H](O)c4cccnc4)N3)cc2)N1 (single isomer, unassigned) [Example 197]
26 | 101 to 1000 | O=C(Nc1ccc(CC2CC[C@H]([C@H](O)c3cccnc3)N2)cc1)C1CCc2sc(C3CC3)nc21 (single isomer, unassigned) [Example 122]
27 | 11 to 100 | Cc1cc(C(C)C(=O)Nc2ccc(CC3CC[C@H]([C@H](O)c4cccnc4)N3)cc2)[nH]n1 (single isomer, unassigned) [Example 176]
28 | 1 to 10 | CC(C(=O)Nc1ccc(CC2CC[C@H]([C@H](O)c3cccnc3)N2)cc1)c1nccs1 (single isomer, unassigned) [Example 175]
29 | 1 to 10 | CC(C(=O)Nc1ccc(CC2CC[C@H]([C@H](O)c3cccnc3)N2)cc1)c1ccn[nH]1 (single isomer, unassigned) [Example 178]
30 | 11 to 100 | Cc1nc2c(s1)CCCC2C(=O)Nc1ccc(CC2CC[C@H]([C@H](O)c3cccnc3)N2)cc1 (single isomer, unassigned) [Example 134]
31 | 1 to 10 | O=C(Nc1ccc(CC2CC[C@H]([C@H](O)c3cccnc3)N2)cc1)[C@@H]1CCc2nnnn21 (some centres unmarked) [Example 172]
32 | 1 to 10 | CCC(C(=O)Nc1ccc(CC2CC[C@H]([C@H](O)c3cccnc3)N2)cc1)c1cscn1 (single isomer, unassigned) [Example 204]
33 | 101 to 1000 | Cc1cnnn1C(C)C(=O)Nc1ccc(CC2CC[C@H]([C@H](O)c3cccnc3)N2)cc1 (single isomer, unassigned) [Example 212]
34 | 1 to 10 | C#CCC(C(=O)Nc1ccc(CC2CC[C@H]([C@H](O)c3cccnc3)N2)cc1)c1cnc(N)s1 (single isomer, unassigned) [Example 110]

Same assay, conditions: Table 4; cAMP production, CHO cells expressing human β3 AR; read-out: Human β3 functional

Row | EC50 [nM] | SMILES
35 | 101 to 1000 | O=S(=O)(Nc1ccc(CC2CC[C@H]([C@H](O)c3cccnc3)N2)cc1)c1cccc2cccnc12 (some centres unmarked) [Example 229]
36 | 11 to 100 | O=S(=O)(Nc1ccc(CC2CC[C@H]([C@H](O)c3cccnc3)N2)cc1)c1ccc(-c2cnco2)cc1 (some centres unmarked) [Example 232]
37 | 101 to 1000 | O=c1ccc2cc(S(=O)(=O)Nc3ccc(CC4CC[C@H]([C@H](O)c5cccnc5)N4)cc3)ccc2o1 (some centres unmarked) [Example 234]
38 | 11 to 100 | O=S(=O)(Nc1ccc(CC2CC[C@H]([C@H](O)c3cccnc3)N2)cc1)c1ccc2ccccc2c1 (some centres unmarked) [Example 225]

Same assay, conditions: Table 5; human β3 functional activity given as ranges; read-out: Human β3 functional

Row | EC50 [nM] | SMILES
39 | 101 to 1000 | O=C(Nc1ccc(CC2CC[C@H]([C@H](O)c3cccnc3)N2)cc1Br)C1CCc2sc(I)nc21 (single isomer, unassigned) [Example 243]

Same assay, conditions: Table 6; human β3 functional activity given as ranges; read-out: Human β3 functional

Row | EC50 [nM] | SMILES
40 | 11 to 100 | CC(N)C(=O)Nc1ccc(C[C@@H]2CC[C@H]([C@H](O)c3cccnc3)N2)cc1 (some centres unmarked) [Example 254]
41 | 11 to 100 | CC(C(=O)Nc1ccc(C[C@@H]2CC[C@H]([C@H](O)c3cccnc3)N2)cc1)N(C)C(=O)c1ccccc1F (some centres unmarked) [Example 261]
42 | 11 to 100 | CC(=O)NC(C)C(=O)Nc1ccc(C[C@@H]2CC[C@H]([C@H](O)c3cccnc3)N2)cc1 (some centres unmarked) [Example 249]
43 | < 1 | CC(NC(=O)c1c(F)cccc1F)C(=O)Nc1ccc(C[C@@H]2CC[C@H]([C@H](O)c3cccnc3)N2)cc1 (some centres unmarked) [Example 250]

Same assay, conditions: cAMP production, CHO cells expressing human β3 AR; read-out: human Beta-3 agonist functional activity

Row | EC50 [nM] | SMILES
44 | < 100 | O=C(Nc1ccc(CC2CCC(C(O)c3cccnc3)N2)cc1Br)C1CCc2sc(Br)nc21 (single isomer, unassigned) [Example 241, (4S or 4R)-2-bromo-N-[2-bromo-4-({(2S,5R)-5-[(R)-hydroxy(pyridin-3-yl)methyl]pyrrolidin-2-yl}methyl)phenyl]-5,6-dihydro-4H-cyclopenta[d][1,3]thiazole-4-carboxamide]
45 | < 10 | O=C(Nc1ccc(C[C@@H]2CC[C@H]([C@H](O)c3cncc(F)c3)N2)cc1)[C@@H]1CCc2scnc21 [Example 262, (4R)—N-[4-({(2S,5R)-5-[(R)-(5-fluoropyridin-3-yl)(hydroxy)methyl]pyrrolidin-2-yl}methyl)phenyl]-5,6-dihydro-4H-cyclopenta[d][1,3]thiazole-4-carboxamide, trifluoroacetic acid salt]
46 | < 10 | C[C@@H](C(=O)Nc1ccc(C[C@@H]2CC[C@H]([C@H](O)c3cccnc3)N2)cc1)n1ccccc1=O (single isomer, unassigned) [Example 95]
47 | < 10 | CCCCCCNC(=O)Nc1ccc(S(=O)(=O)Nc2ccc(C[C@@H]3CC[C@H]([C@H](O)c4cccnc4)N3)cc2)cc1 [Example 239, 4-{[(Hexylamino)carbonyl]amino}-N-[4-({(2S,5R)-5-[(R)-hydroxy(pyridin-3-yl)methyl]pyrrolidin-2-yl}methyl)phenyl]benzenesulfonamide, trifluoroacetic acid salt]
